Results on 2 molecules are retold here after ChEMBL document CHEMBL1649101, “Desmethyl Macrolide Analogues to Address Antibiotic Resistance: Total Synthesis and Biological Evaluation of 4,8,10-Tridesmethyl Telithromycin” (2011).

Converted amounts (≈) assume the structure as drawn.

The MIC is the smallest concentration in the dilution series that meets the test's criterion for growth inhibition. Low readings indicate a more susceptible organism, high ones a less susceptible organism.

What all share (assay type): functional
The subject of assay [1] is Staphylococcus aureus. Kind of assay: Antibacterial activity against Staphylococcus aureus ATCC 33591 harboring ermA mutant.
Assay [2] has as its system Escherichia coli. The assay is described as follows: Antibacterial activity against wild type Escherichia coli DK/pKK3535.
Assay [3] concerns Escherichia coli. The assay is described as follows: Antibacterial activity against Escherichia coli SQ171/2058G harboring ribosomal A2058G mutant.
Assay [4] deals with Escherichia coli. Kind of assay: Antibacterial activity against Escherichia coli DK/2058G harboring ribosomal A2058G mutant.
In assay [5] the test system is Staphylococcus aureus. Kind of assay: Antibacterial activity against Staphylococcus aureus UCN14 harboring ribosomal […] mutant.

Turning to `CC[C@H]1OC(=O)[C@H](C)C(=O)[C@H](C)[C@@H](O[C@@H]2O[C@H](C)C[C@H](N(C)C)[C@H]2O)[C@](C)(OC)C[C@@H](C)C(=O)[C@H](C)[C@H]2N(CCCCn3cnc(-c4cccnc4)c3)C(=O)O[C@]12C` [TELITHROMYCIN], the MIC was above 128 µg/mL in assay [1]; 0.5 µg/mL (≈ 0.616 µM) in assay [2]; above 512 µg/mL in assay [3]; 1 µg/mL (≈ 1.23 µM) in assay [4]; above 256 µg/mL in assay [5].
In assay [2], `CC[C@H]1OC(=O)[C@H](C)C(=O)C[C@@H](O[C@@H]2O[C@H](C)C[C@H](N(C)C)[C@H]2O)[C@@](C)(OC)CCC(=O)C[C@@H]2N(CCCCn3cnc(-c4cccnc4)c3)C(=O)O[C@@]21C` yielded an MIC of 32 µg/mL (≈ 41.6 µM).
